Assays:
Type in all cases: in vivo
[1] = test system: Abutilon theophrasti; assay: Pre-emergence herbicidal action, ABUTH; settings: dosage 320 g/ha, scored visually after 3 weeks vs untreated controls
Summary of the method: (§1)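 Percent herbicidal activity rated by eye 3 weeks after pre-emergence soil-surface application, compared with untreated pots. Seeds sat under sandy loam; sprays carried 0.2% wetting agent.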

[2] = test system: Amaranthus retroflexus; assay: Pre-emergence herbicidal action, AMARE; settings: dosage 320 g/ha, scored visually after 3 weeks vs untreated controls
Summary of the method: as §1

[3] = test system: Amaranthus retroflexus; assay: Post-emergence herbicidal action, AMARE; settings: 80 g/ha, Table D
Summary of the method: (§2)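 Greenhouse-grown plants were sprayed at the one-leaf stage, 2–3 weeks after sowing. Damage was scored visually after about 3 weeks against untreated controls, as % action (100% = dead, 0% = like control).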

[4] = test system: Stellaria media; assay: Post-emergence herbicidal action, STEME; settings: 80 g/ha, Table D
Summary of the method: as §2

[5] = test system: ECHCG; assay: Post-emergence herbicidal action, ECHCG; settings: 80 g/ha, Table C
Summary of the method: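 Weed and crop plants grown in sandy loam in the greenhouse, treated at the one-leaf stage 2–3 weeks after sowing. Damage scored visually after about 3 weeks vs untreated controls (0% = control, 100% = dead).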

[6] = test system: Alopecurus myosuroides; assay: Post-emergence herbicidal action, ALOMY; settings: 80 g/ha, Table C
Summary of the method: as §2

[7] = test system: Matricaria inodora; assay: Pre-emergence herbicidal action, MATIN; settings: dosage 320 g/ha, scored visually after 3 weeks vs untreated controls
Summary of the method: as §1

[8] = test system: Viola tricolor; assay: Post-emergence herbicidal action, VIOTR; settings: 80 g/ha, Table D
Summary of the method: as §2

[9] = test system: Abutilon theophrasti; assay: Post-emergence herbicidal action, ABUTH; settings: 80 g/ha, Table D
Summary of the method: as §2

[10] = test system: Stellaria media; assay: Pre-emergence herbicidal action, STEME; settings: dosage 320 g/ha, scored visually after 3 weeks vs untreated controls
Summary of the method: as §1

[11] = test system: Pharbitis purpureum; assay: Post-emergence herbicidal action, PHBPU; settings: 80 g/ha, Table D
Summary of the method: as §2

[12] = test system: Setaria viridis; assay: Post-emergence herbicidal action, SETVI; settings: 80 g/ha, Table C
Summary of the method: as §2

[13] = test system: Alopecurus myosuroides; assay: Pre-emergence herbicidal action, ALOMY; settings: dosage 320 g/ha, scored visually after 3 weeks vs untreated controls
Summary of the method: as §1

[14] = test system: Cyperus serotinus; assay: Pre-emergence herbicidal action, CYPES; settings: dosage 320 g/ha, scored visually after 3 weeks vs untreated controls
Summary of the method: as §1

[15] = test system: Avena fatua; assay: Post-emergence herbicidal action, AVEFA; settings: 80 g/ha, Table C
Summary of the method: as §2

[16] = test system: Setaria viridis; assay: Pre-emergence herbicidal action, SETVI; settings: dosage 320 g/ha, scored visually after 3 weeks vs untreated controls
Summary of the method: as §1

[17] = test system: Viola tricolor; assay: Pre-emergence herbicidal action, VIOTR; settings: dosage 320 g/ha, scored visually after 3 weeks vs untreated controls
Summary of the method: as §1

[18] = test system: Avena fatua; assay: Pre-emergence herbicidal action, AVEFA; settings: dosage 320 g/ha, scored visually after 3 weeks vs untreated controls
Summary of the method: as §1

Compound | herbicidal activity ABUTH [1] | herbicidal activity AMARE [2] | herbicidal activity AMARE [3] | Herbicidal activity STEME [4] | Herbicidal activity ECHCG [5] | herbicidal activity ALOMY [6] | herbicidal activity MATIN [7] | herbicidal activity VIOTR [8] | herbicidal activity ABUTH [9] | Herbicidal activity STEME [10] | Herbicidal activity PHBPU [11] | herbicidal activity SETVI [12] | herbicidal activity ALOMY [13] | herbicidal activity CYPES [14] | herbicidal activity AVEFA [15] | herbicidal activity SETVI [16] | herbicidal activity VIOTR [17] | herbicidal activity AVEFA [18]
CCSc1c(C(F)F)ccc(C(=O)Nc2nnnn2C)c1C [Example 1-4] | 100% | 100% | 100% | 100% | 100% | 90% | 100% | 100% | 100% | 100% | 100% | 100% | 100% | 80% | 100% | 100% | 100% | 100%
CCSc1c(C(F)F)ccc(C(=O)Nc2nnc(C)o2)c1CC [Example 7-14] | 100% | 100% | 100% | 100% | 90% | 90% | 90% | 100% | 100% | 100% | 90% | 90% | 100% | 100% | 100% | 100% | 100% | 100%
CCc1c(C(=O)Nc2nnnn2C)ccc(C(F)F)c1SC [Example 1-13] | 100% | 100% | 100% | 100% | 90% | 90% | 100% | 100% | 100% | 100% | 100% | 90% | 100% | 100% | 100% | 100% | 100% | 100%
CCn1nnnc1NC(=O)c1ccc(C(F)F)c(S(=O)(=O)CC)c1C [Example 2-6] | 100% | 100% | 90% | 100% | 90% | 80% | 100% | 100% | 100% | 100% | 100% | 90% | 100% | 100% | 100% | 100% | 100% | 100%
Cn1nnnc1NC(=O)c1ccc(C(F)F)c([S+](C)[O-])c1I (stereo not drawn) [Example 1-74] | 100% | 100% | 100% | 100% | 90% | 90% | 100% | 100% | 100% | 100% | 100% | 100% | 100% | 100% | 90% | 100% | 100% | 100%
CCn1nnnc1NC(=O)c1ccc(C(F)F)c(SC)c1Cl [Example 2-49] | 100% | 100% | 100% | 100% | 100% | 100% | 100% | 100% | 100% | 90% | 100% | 100% | 100% | 90% | 100% | 100% | 100% | 100%
CSc1c(C(F)F)ccc(C(=O)Nc2nnnn2C)c1C1CC1 [Example 1-25] | 100% | 100% | 100% | 100% | 100% | 100% | 100% | 100% | 100% | 100% | 100% | 100% | 100% | 100% | 100% | 100% | 100% | 100%
CCn1nnnc1NC(=O)c1ccc(C(F)F)c([S+]([O-])CC)c1F (stereo not drawn) [Example 2-41] | 100% | 100% | 90% | 100% | 100% | 80% | 100% | 100% | 100% | 100% | 90% | 100% | 100% | 90% | 90% | 100% | 100% | 100%
CCSc1c(C(F)F)ccc(C(=O)Nc2nnnn2C)c1C1CC1 [Example 1-28] | 100% | 100% | 100% | 100% | 100% | 90% | 100% | 100% | 100% | 100% | 100% | 100% | 100% | 100% | 100% | 100% | 100% | 100%
CCn1nnnc1NC(=O)c1ccc(C(F)F)c(S(C)(=O)=O)c1Br [Example 2-63] | 100% | 100% | 100% | 100% | 100% | 100% | 100% | 100% | 100% | 100% | 100% | 100% | 100% | 90% | 100% | 100% | 100% | 100%
